Data from patent US8952024B2, “Herbicidal pyrimidone derivatives” (E I du Pont de Nemours and Company, priority 2009, dated 2015).

Tests used:
Format in all cases: in vivo
[1] = test system: ducksalad (Heteranthera limosa); experiment: Test B flooded paddy test; settings: for Plant response rating, Flood, Ducksalad: 250 g ai/ha, flooded paddy test, visual rating on 0 to 100 scale (0 no effect, 100 complete control) after 13 to 15 days; for Plant response rating, Ducksalad: Flood (flooded paddy test), 13 to 15 days; for Ducksalad plant response rating: Flood, 31 g ai/ha, scale 0 to 100 (0 no effect, 100 complete control)
How it was run: (§1)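 Ratings are visual, 0–100 (100 = complete control), taken versus untreated controls 13 to 15 days after treatment in the greenhouse. Compound went straight into paddy water held 3 cm above soil, applied to 2-leaf-stage plants of four species.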

[2] = test system: umbrella sedge (Cyperus difformis); experiment: Test B flooded paddy test; settings: for Plant response rating, Flood, Sedge, Umbrella: 250 g ai/ha, flooded paddy test, visual rating on 0 to 100 scale (0 no effect, 100 complete control) after 13 to 15 days; for Plant response rating, Sedge, Umbrella: Flood (flooded paddy test), 13 to 15 days; for Sedge, Umbrella plant response rating: Flood, 31 g ai/ha, scale 0 to 100 (0 no effect, 100 complete control)
How it was run: as §1

rice (Oryza sativa) = experiment: Test B flooded paddy test; settings: for Plant response rating, Flood, Rice: 250 g ai/ha, flooded paddy test, visual rating on 0 to 100 scale (0 no effect, 100 complete control) after 13 to 15 days; for Plant response rating, Rice: Flood (flooded paddy test), 13 to 15 days; for Rice plant response rating: Flood, 31 g ai/ha, scale 0 to 100 (0 no effect, 100 complete control)
How it was run: as §1

[3] = test system: barnyardgrass (Echinochloa crus-galli); experiment: Test B flooded paddy test; settings: for Plant response rating, Flood, Barnyardgrass: 250 g ai/ha, flooded paddy test, visual rating on 0 to 100 scale (0 no effect, 100 complete control) after 13 to 15 days; for Plant response rating, Barnyardgrass: Flood (flooded paddy test), 13 to 15 days; for Barnyardgrass plant response rating: Flood, 31 g ai/ha, scale 0 to 100 (0 no effect, 100 complete control)
How it was run: as §1

[4] = test system: giant foxtail (Setaria faberii); experiment: Test A pre-/postemergence plant response
How it was run: (§2)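 Greenhouse trial, ~10 days. Soil (loam/sand) sprayed preemergence after seeding; emerged plants (1–2 leaf, 2–10 cm) sprayed postemergence in parallel. Response = visual injury vs untreated control, 0–100.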

[5] = test system: large crabgrass (Digitaria sanguinalis); experiment: Test A pre-/postemergence plant response
How it was run: as §2

[6] = test system: wheat (Triticum aestivum); experiment: Test A pre-/postemergence plant response
How it was run: as §2

[7] = test system: pigweed (Amaranthus retroflexus); experiment: Test A pre-/postemergence plant response
How it was run: as §2

[8] = test system: morningglory (Ipomoea spp.); experiment: Test A pre-/postemergence plant response
How it was run: as §2

[9] = test system: velvetleaf (Abutilon theophrasti); experiment: Test A pre-/postemergence plant response
How it was run: as §2

corn (Zea mays) = experiment: Test A pre-/postemergence plant response
How it was run: as §2

[10] = test system: barnyardgrass (Echinochloa crus-galli); experiment: Test A pre-/postemergence plant response
How it was run: as §2

[11] = 62 g ai/ha, scale of 0 to 100 where 0 is no effect and 100 is complete control
[12] = 125 g ai/ha, scale 0 to 100, 0 is no effect, 100 is complete control
[13] = Postemergence, 125 g ai/ha, 0 to 100 scale where 0 is no effect and 100 is complete control
[14] = Postemergence, 500 g ai/ha, visual injury, 0 to 100 scale (0 no effect, 100 complete control), approx. ten days
[15] = Preemergence, 125 g ai/ha, 0 to 100 scale, 0 = no effect, 100 = complete control
[16] = Preemergence, 500 g ai/ha, 0 to 100 scale, 0 = no effect, 100 = complete control
[17] = Postemergence, 500 g ai/ha, 0 to 100 scale, 0 = no effect, 100 = complete control, approx. ten days
[18] = Preemergence, 500 g ai/ha, visual injury, 0 to 100 scale (0 no effect, 100 complete control), approx. ten days

CCCn1c(-c2ccco2)ncc(C(=O)C2=C(O)C3CCC(C3)C2=O)c1=O (stereo not drawn) [Compound 230]
Plant response rating, Flood, Ducksalad [1]: 0
Plant response rating, Ducksalad [1, 11]: 0
Plant response rating, Ducksalad [1, 12]: 0
Ducksalad plant response rating [1]: 0
Plant response rating, Flood, Sedge, Umbrella [2]: 75
Plant response rating, Sedge, Umbrella [2, 11]: 30
Plant response rating, Sedge, Umbrella [2, 12]: 40
Sedge, Umbrella plant response rating [2]: 0
Plant response rating, Flood, Rice (rice (Oryza sativa)): 45
Plant response rating, Rice (rice (Oryza sativa); [11]): 20
Plant response rating, Rice (rice (Oryza sativa); [12]): 30
Rice plant response rating (rice (Oryza sativa)): 0
Plant response rating, Flood, Barnyardgrass [3]: 40
Plant response rating, Barnyardgrass [3, 11]: 0
Plant response rating, Barnyardgrass [3, 12]: 20
Barnyardgrass plant response rating [3]: 0
Plant response rating, Foxtail, Giant [4, 13]: 30
Foxtail, Giant plant response rating [4, 14]: 50
Plant response rating, Foxtail, Giant [4, 15]: 40
Plant response rating, Foxtail, Giant [4, 16]: 50
Plant response rating, Crabgrass, Large [5, 13]: 80
Crabgrass, Large plant response rating [5, 14]: 90
Plant response rating, Crabgrass, Large [5, 15]: 30
Plant response rating, Crabgrass, Large [5, 16]: 90
Plant response rating, Wheat [6, 13]: 0
Wheat plant response rating [6, 14]: 0
Plant response rating, Wheat [6, 15]: 0
Plant response rating, Wheat [6, 16]: 0
Plant response rating, Pigweed [7, 13]: 80
Pigweed plant response rating [7, 14]: 90
Plant response rating, Pigweed [7, 16]: 80
Plant response rating, Morningglory [8, 13]: 70
Morningglory plant response rating [8, 14]: 90
Plant response rating, Morningglory [8, 15]: 0
Plant response rating, Morningglory [8, 16]: 20
Plant response rating, Velvetleaf [9, 13]: 100
Velvetleaf plant response rating [9, 14]: 100
Plant response rating, Velvetleaf [9, 15]: 60
Plant response rating, Velvetleaf [9, 16]: 80
Plant response rating, Corn (corn (Zea mays); [13]): 0
Corn plant response rating (corn (Zea mays); [14]): 20
Plant response rating, Corn (corn (Zea mays); [15]): 0
Plant response rating, Corn (corn (Zea mays); [16]): 0
Plant response rating, Barnyardgrass [10, 13]: 70
Barnyardgrass plant response rating [10, 14]: 90
Plant response rating, Barnyardgrass [10, 15]: 10
Plant response rating, Barnyardgrass [10, 16]: 80

CCn1c(-c2cccc(F)c2)ncc(C(=O)C2=C(O)CCCC2=O)c1=O [Compound 124]
Plant response rating, Flood, Ducksalad [1]: 0
Plant response rating, Ducksalad [1, 11]: 0
Plant response rating, Ducksalad [1, 12]: 0
Ducksalad plant response rating [1]: 0
Plant response rating, Flood, Sedge, Umbrella [2]: 40
Plant response rating, Sedge, Umbrella [2, 11]: 0
Plant response rating, Sedge, Umbrella [2, 12]: 20
Sedge, Umbrella plant response rating [2]: 0
Plant response rating, Flood, Rice (rice (Oryza sativa)): 20
Plant response rating, Rice (rice (Oryza sativa); [11]): 15
Plant response rating, Rice (rice (Oryza sativa); [12]): 20
Rice plant response rating (rice (Oryza sativa)): 0
Plant response rating, Flood, Barnyardgrass [3]: 30
Plant response rating, Barnyardgrass [3, 11]: 0
Plant response rating, Barnyardgrass [3, 12]: 0
Barnyardgrass plant response rating [3]: 0
Plant response rating, Foxtail, Giant [4, 13]: 50
Plant response rating, Foxtail, Giant [4, 17]: 70
Plant response rating, Foxtail, Giant [4, 15]: 10
Plant response rating, Foxtail, Giant [4, 18]: 40
Plant response rating, Crabgrass, Large [5, 13]: 70
Plant response rating, Crabgrass, Large [5, 17]: 90
Plant response rating, Crabgrass, Large [5, 15]: 60
Plant response rating, Crabgrass, Large [5, 18]: 90
Plant response rating, Wheat [6, 13]: 0
Plant response rating, Wheat [6, 17]: 0
Plant response rating, Wheat [6, 15]: 0
Plant response rating, Wheat [6, 18]: 0
Plant response rating, Pigweed [7, 13]: 90
Plant response rating, Pigweed [7, 17]: 100
Plant response rating, Pigweed [7, 15]: 100
Plant response rating, Pigweed [7, 18]: 100
Plant response rating, Morningglory [8, 13]: 100
Plant response rating, Morningglory [8, 17]: 100
Plant response rating, Morningglory [8, 15]: 60
Plant response rating, Morningglory [8, 18]: 80
Plant response rating, Velvetleaf [9, 13]: 100
Plant response rating, Velvetleaf [9, 17]: 100
Plant response rating, Velvetleaf [9, 15]: 70
Plant response rating, Velvetleaf [9, 18]: 100
Plant response rating, Corn (corn (Zea mays); [13]): 0
Plant response rating, Corn (corn (Zea mays); [17]): 20
Plant response rating, Corn (corn (Zea mays); [15]): 0
Plant response rating, Corn (corn (Zea mays); [18]): 0
Plant response rating, Barnyardgrass [10, 13]: 40
Plant response rating, Barnyardgrass [10, 17]: 90
Plant response rating, Barnyardgrass [10, 15]: 20
Plant response rating, Barnyardgrass [10, 18]: 60

O=C1CCCC(O)=C1C(=O)c1cnc(-c2ccco2)n(C2CCCCC2)c1=O [Compound 188]
Plant response rating, Flood, Ducksalad [1]: 85
Plant response rating, Ducksalad [1, 11]: 70
Plant response rating, Flood, Sedge, Umbrella [2]: 85
Plant response rating, Sedge, Umbrella [2, 11]: 80
Plant response rating, Flood, Rice (rice (Oryza sativa)): 15
Plant response rating, Rice (rice (Oryza sativa); [11]): 0
Plant response rating, Flood, Barnyardgrass [3]: 0
Plant response rating, Barnyardgrass [3, 11]: 0
Plant response rating, Foxtail, Giant [4, 13]: 40
Foxtail, Giant plant response rating [4, 14]: 80
Plant response rating, Foxtail, Giant [4, 15]: 10
Plant response rating, Foxtail, Giant [4, 16]: 40
Plant response rating, Crabgrass, Large [5, 13]: 80
Crabgrass, Large plant response rating [5, 14]: 90
Plant response rating, Crabgrass, Large [5, 15]: 30
Plant response rating, Crabgrass, Large [5, 16]: 70
Plant response rating, Wheat [6, 13]: 0
Wheat plant response rating [6, 14]: 0
Plant response rating, Wheat [6, 15]: 0
Plant response rating, Wheat [6, 16]: 0
Plant response rating, Pigweed [7, 13]: 90
Pigweed plant response rating [7, 14]: 100
Plant response rating, Pigweed [7, 15]: 60
Plant response rating, Pigweed [7, 16]: 80
Plant response rating, Morningglory [8, 13]: 90
Morningglory plant response rating [8, 14]: 100
Plant response rating, Morningglory [8, 15]: 70
Plant response rating, Morningglory [8, 16]: 80
Plant response rating, Velvetleaf [9, 13]: 100
Velvetleaf plant response rating [9, 14]: 100
Plant response rating, Velvetleaf [9, 15]: 70
Plant response rating, Velvetleaf [9, 16]: 80
Plant response rating, Corn (corn (Zea mays); [13]): 0
Corn plant response rating (corn (Zea mays); [14]): 10
Plant response rating, Corn (corn (Zea mays); [15]): 0
Plant response rating, Corn (corn (Zea mays); [16]): 0
Plant response rating, Barnyardgrass [10, 13]: 70
Barnyardgrass plant response rating [10, 14]: 90
Plant response rating, Barnyardgrass [10, 15]: 0
Plant response rating, Barnyardgrass [10, 16]: 30
